Experimental data taken from patent US20190241535A1, “3-SUBSTITUTED CARBONYL-NAPHTHO[2,3-B]FURANE DERIVATIVE OR PHARMACEUTICALLY ACCEPTABLE SALT THEREOF” (Boston Biomedical, Inc., priority 2014, published 2019).
In brackets after ≈: the same amount, converted by molar mass. Structures can show the parent of a compound that is named as a salt. Where two headings read alike, the source gives them in different places.

Experiments:
FaDu cell [1] = assay: Test 1: growth inhibition in cancer cell (Bulk IC50); type: cell-based; settings: Homo sapiens, 96 h, adherent culture, incubated 4 days, CellTiter-Glo
Method: (§1) HCT-116 cell, HT-29 cell, and FaDu cell were obtained from the American Type Culture Collection (ATCC). HCT-116 cell and HT-29 cell were cultivated at 37° C. in the presence of 5% CO2 using McCoy's 5a medium containing 10% fetal bovine serum (FBS), and 1% penicillin/streptomycin; and FaDu cell was cultivated at 37° C. in the presence of 5% CO2 using MEM containing 10% FBS, 1% non-essential amino acid, 1% sodium pyruvate, and 1% penicillin/streptomycin. Each cell was seeded on μClear-plate black 384 wells (Greiner bio-one Cat. No. 781091) in 300-600 cells/well, and then each test sample was added thereto to adjust the final concentration thereof in DMSO to 0.1% and the test wells were incubated for 4 days. And then, the viable cell count of each sample was measured using CellTiter-Glo® Luminescent Cell Viability Assay (Promega), and the concentration to inhibit the cell growth in each test sample by 50% was calculated (Bulk IC50 Value; μM).

HCT-116 cell [2] = assay: as above; type: cell-based; settings: Homo sapiens, 96 h, adherent culture, incubated 4 days, CellTiter-Glo
Method: as §1

HT-29 cell [3] = assay: as above; type: cell-based; settings: Homo sapiens, 96 h, adherent culture, incubated 4 days, CellTiter-Glo
Method: as §1

FaDu cell [4] = assay: Test 2: inhibition of forming cancer cell sphere (Sphere IC50); type: cell-based; settings: Homo sapiens, 96 h, ultra-low attachment plate, serum-free sphere medium, 4 days, CellTiter-Glo
Method: (§2) HCT-116 cell, HT-29 cell, and FaDu cell were obtained from the American Type Culture Collection (ATCC). HCT-116 cell and HT-29 cell were cultivated at 37° C. in the presence of 5% CO2 using McCoy's 5a medium containing 10% fetal bovine serum (FBS), and 1% penicillin/streptomycin; and FaDu cell was cultivated at 37° C. in the presence of 5% CO2 using MEM containing 10% FBS, 1% non-essential amino acid, 1% sodium pyruvate, and 1% penicillin/streptomycin. Each of HCT-116 cell, HT-29 cell, and FaDu cell was seeded on 384 Wells Black Clear Bottom Ultra-Low Attachment Microplate (Corning Cat. No. 3827) in 350-800 cells/well, with DMEM/F12 medium containing 2% B27 supplement (GIBCO), 20 ng/mL epidermal growth factor (EGF) (peprotech), 10 ng/mL basic fibroblast growth factor (bFGF) (peprotech), 5 μg/mL insulin (Sigma), and 1% penicillin/streptomycin. Each test sample was added thereto to adjust the final concentration thereof in DMSO to 0.1% and the test wells were incubated for 4 days. And then, the viable cell count of each sample was measured using CellTiter-Glo® Luminescent Cell Viability Assay (Promega), and the concentration to inhibit the cell growth in each test sample by 50% was calculated (Sphere IC50 Value;μM).

HCT-116 cell [5] = assay: as above; type: cell-based; settings: Homo sapiens, 96 h, ultra-low attachment plate, serum-free sphere medium, 4 days, CellTiter-Glo
Method: as §2

HT-29 cell [6] = assay: as above; type: cell-based; settings: Homo sapiens, 96 h, ultra-low attachment plate, serum-free sphere medium, 4 days, CellTiter-Glo
Method: as §2

Test 3: solubility test = type: physicochemical; settings: kinetic from dmso stock, 1% DMSO, HPLC
Method: Each 15 μL of each test sample (10 mM DMSO solution) was dispensed into 4 Utubes on a 96 well rack. Then, each sample was evaporated to dryness with a rotary evaporator. 3 μL of DMSO was added to each dried sample to be re-dissolved. And, 300 μL of pH 7.4 buffer was added to the 2 wells and 300 μL of pH 1.2 buffer was added to the other 2 wells. After shaking each sample solution, the samples were still stood. Then, each sample solution was centrifuged to remove insoluble matter, and 100 μL of the supernatant was picked up on a 96 well plate. Separately, 2 μL of each test sample (10 mM DMSO solution) was dispensed on a 96 well plate, and diluted with 198 μL of 50% acetonitrile to prepare each 100 μM standard solution. Further, the 100 μM standard solution was diluted with 50% acetonitrile to prepare each 10 μM standard solution. The above test samples for the solubility test and the two kinds of the standard samples were analyzed with a HPLC. The solubility of each test sample was calculated as an area ratio per the standard solutions.

[7] = aqueous buffer, pH 7.4 buffer, read-out: Solubility pH 7.4
[8] = simulated gastric fluid, pH 1.2 buffer, read-out: Solubility pH 1.2

| SMILES | IC50 (FaDu cell [1]) [nM] | IC50 (HCT-116 cell [2]) [nM] | IC50 (HT-29 cell [3]) [nM] | IC50 (FaDu cell [4]) [nM] | IC50 (HCT-116 cell [5]) [nM] | IC50 (HT-29 cell [6]) [nM] | solubility (Test 3: solubility test; [7]) [µg/mL] | solubility (Test 3: solubility test; [8]) [µg/mL] |
| --- | --- | --- | --- | --- | --- | --- | --- | --- |
| COC(=O)c1c(C(C)(OC)OC)oc2c1C(=O)c1ccccc1C2=O [Example 1, Methyl 2-(1,1-dimethoxyethyl)-4,9-dioxo-4,9-dihydronaphtho[2,3-b]furan-3-carboxylate] | 380 | 440 | 2250 | 2150 | 1730 | 2180 | – | – |
| COC(=O)c1c(C(C)=O)oc2c1C(=O)c1ccccc1C2=O [Example 2, Methyl 2-acetyl-4,9-dioxo-4,9-dihydronaphtho[2,3-b]furan-3-carboxylate] | 320 | 280 | 340 | 590 | 380 | 400 | 0.5 (≈ 1.68 µM) | 0.8 (≈ 2.68 µM) |
| CC(=O)c1oc2c(c1C(=O)N(C)C)C(=O)c1ccccc1C2=O [Example 4, 2-Acetyl-N,N-dimethyl-4,9-dioxo-4,9-dihydronaphtho[2,3-b]furan-3-carboxamide] | 560 | 590 | 710 | 710 | 3360 | 850 | 107 (≈ 344 µM) | 115 (≈ 369 µM) |
| COC(=O)c1c(C(F)(F)F)oc2c1C(=O)c1ccccc1C2=O [Example 6, Methyl 4,9-dioxo-2-(trifluoromethyl)-4,9-dihydronaphtho[2,3-b]furan-3-carboxylate] | 2610 | 2350 | 2840 | 3630 | 2830 | 3050 | – | – |
| COC(=O)c1c(-c2cccnc2)oc2c1C(=O)c1ccccc1C2=O [Example 12, Methyl 4,9-dioxo-2-(pyridin-3-yl)-4,9-dihydronaphtho[2,3-b]furan-3-carboxylate] | 2340 | 6960 | > 10000 | 5790 | > 10000 | > 10000 | – | – |

The next lines start with the values.

| IC50 (FaDu cell [1]) [nM] | IC50 (HCT-116 cell [2]) [nM] | IC50 (HT-29 cell [3]) [nM] | IC50 (FaDu cell [4]) [nM] | IC50 (HCT-116 cell [5]) [nM] | IC50 (HT-29 cell [6]) [nM] | solubility (Test 3: solubility test; [7]) [µg/mL] | solubility (Test 3: solubility test; [8]) [µg/mL] | SMILES |
| --- | --- | --- | --- | --- | --- | --- | --- | --- |
| 540 | 620 | 570 | 660 | 3100 | 600 | 127 | 152 | CC(=O)c1oc2c(c1C(=O)N1CCN(C)CC1)C(=O)c1ccccc1C2=O [Example 5, 2-Acetyl-3-(4-methylpiperazine-1-carbonyl)naphtho[2,3-b]furan-4,9-dione hydrochloride] |
| 4470 | 5310 | 5760 | 4460 | 5430 | 5840 | < 0.1 | < 0.1 | CN(C)C(=O)c1c(-c2ccc(F)cc2)oc2c1C(=O)c1ccccc1C2=O [Example 11, 2-(4-Fluorophenyl)-N,N-dimethyl-4,9-dioxo-4,9-dihydronaphtho[2,3-b]furan-3-carboxamide] |
| 750 | 740 | 3580 | 540 | 1800 | 710 | 121 (≈ 342 µM) | 131 (≈ 371 µM) | CC(=O)c1oc2c(c1C(=O)N1CCOCC1)C(=O)c1ccccc1C2=O [Example 14, 2-Acetyl-3-(morpholine-4-carbonyl)naphtho[2,3-b]furan-4,9-dione] |
| 300 | 270 | 300 | 410 | 320 | 320 | 38 (≈ 113 µM) | 63 (≈ 187 µM) | CN(C)C(=O)c1c(C(F)(F)F)oc2c1C(=O)c1ccccc1C2=O [Example 21, N,N-dimethyl-4,9-dioxo-2-(trifluoromethyl)-4,9-dihydronaphtho[2,3-b]furan-3-carboxamide] |
